# Results as given in article PMC12769565, “Design, synthesis and biological activity of glycoconjugated ADAMTS5 exosite inhibitors: applications in osteoarthritis and ovarian cancer models” (Scientific Reports, 2025).
# Legend:
# ADAMTS4 = molecular target: T1, ADAMTS4 (Homo sapiens, UniProt O75173); test: Versicanase assay (V1-5GAG, versikine sandwich ELISA); format: biochemical; conditions: 100 µM; compared to DMSO control
# T1 construct: Human recombinant full-length FLAG-tagged ADAMTS4 and ADAMTS5 were expressed in HEK293T cells; FLAG; made in house; host or cells: HEK293T cells
# T1 sequence (O75173 213-837): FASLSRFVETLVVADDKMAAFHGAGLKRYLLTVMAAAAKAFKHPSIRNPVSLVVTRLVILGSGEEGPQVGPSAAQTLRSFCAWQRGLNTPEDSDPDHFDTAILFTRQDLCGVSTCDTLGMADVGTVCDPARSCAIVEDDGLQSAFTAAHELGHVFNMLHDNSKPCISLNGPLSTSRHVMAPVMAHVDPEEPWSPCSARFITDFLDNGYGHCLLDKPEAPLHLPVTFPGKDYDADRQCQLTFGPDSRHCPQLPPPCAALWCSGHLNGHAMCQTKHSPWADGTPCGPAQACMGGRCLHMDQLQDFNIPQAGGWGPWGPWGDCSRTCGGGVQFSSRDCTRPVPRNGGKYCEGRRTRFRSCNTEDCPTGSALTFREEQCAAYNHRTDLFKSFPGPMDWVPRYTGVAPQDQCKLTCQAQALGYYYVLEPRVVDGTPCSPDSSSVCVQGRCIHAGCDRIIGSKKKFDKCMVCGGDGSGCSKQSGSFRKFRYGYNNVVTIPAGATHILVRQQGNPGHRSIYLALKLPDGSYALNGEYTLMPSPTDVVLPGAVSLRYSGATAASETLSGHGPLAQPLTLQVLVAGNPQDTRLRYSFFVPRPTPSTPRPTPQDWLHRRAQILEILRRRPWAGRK
# [1] = test system: human OA cartilage explants; test: Aggrecan fragments released from human OA cartilage (anti-AGEG immunoblot); format: cell-based; conditions: 48 h, anti-AGEG neoepitope, read-out: inhibition of aggrecan degradation
# Experimental: Samples were separated by SDS-PAGE under reducing conditions (5% β-mercaptoethanol) on BOLT, 4–12%, Bis-Tris Gels (Invitrogen) in MES Running Buffer (NuPAGE). Proteins were transferred onto a nitrocellulose membrane using Trans-Blot Turbo™ Transfer System (BioRad), at 25 V, 2.5 A for 30 min. Membranes were blocked with 3% BSA/PBS for 1 h at room temperature. Aggrecan fragments generated by ADAMTS cleavage at E^392-A^393[8] or E^1953-A^1954[68] were detected using mouse monoclonal anti-ARGSV antibody (BC3, Life Technologies, MA3-16888, 4 µg/ml) or polyclonal anti-AGEG neoepitope antibody (serum, 1:200 dilution)[12],[33], respectively, followed by the appropriate horseradish peroxidase (HRP)-conjugated secondary antibodies (polyclonal Goat Anti-Mouse P0447, 0.1 ng/µl and polyclonal Goat Anti-Rabbit, P0448, 0.03 ng/µl, both from Agilent Technologies LDA UK Ltd). All antibodies were diluted in 0.5% bovine serum albumin (BSA)/PBS. Washes between each step were carried out in triplicate, for 15 min each, with PBS-Tween (0.1%). Following addition of the chemiluminescent HRP substrate (Millipore, WBKL30500) membranes were imaged using Bio-Rad Chemidoc Touch Imaging System. Analysis was carried out using BioRad ImageLab software (version 5.2.1) using sequential exposures to avoid saturation artifacts. Figures for unprocessed blots are included in Supplementary information Fig. S4 and Fig. S5 with highlighted regions (in red boxes) corresponding to the data reported in the main manuscript figures.
# Human OA cartilage was obtained from Clatterbridge Hospital, Wirral, UK, following total knee arthroplasty procedures with informed patient consent in full compliance with national and institutional ethical requirements, the United Kingdom Human Tissue Act, and the Declaration of Helsinki (REC 18/WA/0344). […]
# Explants were incubated in 0.2 ml of fresh DMEM containing compound 2 (10 or 100 µM) or 4b (10 µM) for 48 h. […] Proteins were precipitated using ice-cold acetone, dissolved in the SDS-sampling buffer and then analyzed by immunoblot using anti-AGEG aggrecan neoepitope antibody as before.
compound,measurement,setting,value
"CCC(C)N(Cc1cn(CCCO[C@@H]2O[C@H](CO)[C@@H](O[C@@H]3O[C@H](CO)[C@H](O)[C@H](O)[C@H]3O)[C@H](O)[C@H]2NC(C)=O)nn1)S(=O)(=O)c1ccc(-c2ccccc2)cc1 (stereo partly drawn) [compound 2, N-((2R,3R,4R,5 S,6R)-2-(3-(4-((N-(sec-butyl)-[1,1’-biphenyl]-4-sulfonamido)methyl)-1H-1,2,3-triazol-1-yl)propoxy)-4-hydroxy-6-(hydroxymethyl)-5-(((2 S,3R,4 S,5R,6R)-3,4,5-trihydroxy-6-(hydroxymethyl)tetrahydro-2 H-pyran-2-yl)oxy)tetrahydro-2 H-pyran-3-yl)acetamide]",inhibition of ADAMTS4 versicanase activity,ADAMTS4,sparing ADAMTS4
same,inhibition at 10 µM,[1]; 10 µM,63%
same,inhibition at 100 µM,[1]; 100 µM,85%
